Experiments:
MDA-MB-231 [1] = test: drug sensitivity score (DSS), cytotoxicity CellTox Green; higher = more cytotoxic; extreme values may be limits of the assay; details: 72 h
MDA-MB-231 [2] = test: drug sensitivity score (DSS), cell viability CellTiter-Glo; higher = more sensitive; extreme values may be limits of the assay; details: 72 h
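Throughout, for drug sensitivity score (DSS), cytotoxicity CellTox Green: DSS summarises each dose–response curve by combining IC50, EC50, maximal inhibition and efficacy across drug concentrations.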

SMILES	drug sensitivity score (MDA-MB-231 [1]; shRNA: shPPFIA1_1) [DSS]	drug sensitivity score (MDA-MB-231 [1]; shRNA: shScramble) [DSS]	drug sensitivity score (MDA-MB-231 [2]; shRNA: shPPFIA1_1) [DSS]	drug sensitivity score (MDA-MB-231 [2]; shRNA: shScramble) [DSS]
CON(C)C(=O)N1N=C(c2cc(F)ccc2F)S[C@@]1(CCCN)c1ccccc1 [Filanesib]	14.1	9.3	0	8.4
C=CCc1cccc(/C=N/NC(=O)CN2CCN(Cc3ccccc3)CC2)c1O [PAC-1]	0	0	2.7	3.8
Nc1ncn([C@H]2C[C@H](O)[C@@H](CO)O2)c(=O)n1 [Decitabine]	0	0	0.9	1
Cc1nc(C(=O)NCC(=O)O)c(O)c2ccc(Oc3ccccc3)cc12 [FG-4592]	0	0	2.2	2.9
C[C@]1(c2nc3c(C(N)=O)cccc3[nH]2)CCCN1 [Veliparib]	0	0	0	0
Cc1cccc(-c2nn3c(c2-c2ccnc4ccc(C(N)=O)cc24)CCC3)n1 [Galunisertib]	0	0	0	0
C#Cc1cccc(Nc2ncnc3cc4c(cc23)OCCOCCOCCO4)c1 [Icotinib]	0	0	6.2	3
FC(F)c1nc2ccccc2n1-c1nc(N2CCOCC2)nc(N2CCOCC2)n1 [ZSTK474]	0	0	0.2	6.1
CNC(=O)c1cc(Oc2ccc(NC(=O)Nc3ccc(Cl)c(C(F)(F)F)c3)c(F)c2)ccn1 [Regorafenib]	8.2	4.3	3.6	7
CN(C)c1nc(N(C)C)nc(N(C)C)n1 [Altretamine]	0	0	0	0
Cc1nc(Nc2n[nH]c3c2CN(C(=O)N[C@H](CN(C)C)c2ccccc2)C3(C)C)c2sccc2n1	5.8	4.8	5.6	10.1
O=C1CN2Cc3c(ccc(Cl)c3Cl)N=C2N1 [Anagrelide]	0	0	0	0
Cn1c(Nc2ccc(C(F)(F)F)cc2)nc2cc(Oc3ccnc(-c4ncc(C(F)(F)F)[nH]4)c3)ccc21 [RAF265]	0	1.6	0	1.8
COc1ccc2c(OCc3nnc4ccc(-c5ccccc5)nn34)ccnc2c1 [AMG-208]	0	0	1.9	8.6
COc1cc(CCc2cc(NC(=O)c3ccc(N4CC(C)NC(C)C4)cc3)n[nH]2)cc(OC)c1 (centres undefined) [AZD4547]	0	0	0	0
CCc1c(C(=O)C(N)=O)c2c(OCC(=O)O)cccc2n1Cc1ccccc1 [Varespladib]	0	0	0	0
